Measurements: patent US20220152100A1, “METHODS FOR CONTROLLED ACTIVATION OR ELIMINATION OF THERAPEUTIC CELLS” (Bellicum Pharmaceuticals, Inc., priority 2014, published 2022)

Legend:
[1] = test system: CD3+ΔCD19+ cells; assay: CASPALLO phase 1 clinical trial: AP1903 in patients with GvHD after iCasp9+ T cells; conditions: within 24 hours
[2] = test system: 293T cells; assay: SeAP reporter assay: FRBL-Caspase9 plus FKBPv12-Caspase9 heterodimerization; type: cell-based, human
Protocol: HEK 293T cells (5×10^5) were seeded on a 100-mm tissue culture dish in 10 mL DMEM4500, supplemented with glutamine, penicillin/streptomycin and 10% fetal calf serum. After 16-30 hours incubation, cells were transfected using Novagen's GeneJuice® protocol. Briefly, for each transfection, 0.5 mL OptiMEM was pipeted into a 1.5-mL microcentrifuge tube and 15 μL GeneJuice reagent added followed by 5 sec. vortexing. Samples were rested 5 minutes to settle the GeneJuice suspension. DNA (5 μg total) was added to each tube and mixed by pipetting up and down four times. Samples were allowed to rest for 5 minutes for GeneJuice-DNA complex formation and the suspension added dropwise to one dish of 293T cells. A typical transfection contains 1 μg SRα-SEAP (pBP0046) (3), 2 μg FRB-Caspase-9 (pBP0463) and 2 μg FKBPv12-Caspase-9 (pBP0044) (7).
24 hours following transfection (4.1), 293T cells were split to 96-well plates and incubated with dilutions of dimerizing drugs. Briefly, 100 μL media was added to each well of a 96-well flat-bottom plate. Drugs were diluted in tubes to a concentration 4× the top concentration in the gradient to be place on the plate. […] 100 μL from each drug-containing well was then transferred to the adjacent well and the cycle repeated 10 times to produce a serial two-fold step gradient. The last wells were untreated and serve as a control for basal reporter activity. […]
24 hours after drug stimulation, 96-well plates were wrapped to prevent evaporation and incubated at 65®C for 2 hours to inactivate endogenous and serum phosphatases while the heat-stable SeAP reporter remains (1, 4, 12). […] Phosphatase activity was measured by fluorescence with excitation at 355 nm and emission at 460 nm. […]
FIG. 37—Drug induced programmed cell death by homodimerization or heterodimerization of tagged caspase 9. […] Reporter activity is expressed as a percentage of the average of 8 control wells containing no drug. […]
FIG. 38—Rapalog-induced cell death switch. […] Reporter activity is expressed as a percentage of the average of 8 wells containing no drug. […]

[3] = test system: 293 cells; assay: SEAP assay: FRBl2-tagged CAR plus iCaspase-9, two-tiered apoptosis; type: cell-based, human; conditions: iCaspase-9, overnight
From the text: FIGS. 6A and 6B provide the results of an assay of two-tiered activation of apoptosis.
As a proof of principal, two tandem FRBl domains were fused to either a 1st generation Her2-CAR or to a 1st generation CD19-CAR co-expressing inducible Caspase-9. 293 cells were transiently transfected with a constitutive reporter plasmid, SRα-SEAP, along with normalized levels of expression plasmids encoding Her2-CAR-FRBl2, iCaspase-9, Her2-CAR-FRBl2+iCasp9, iC9-CAR(19).FRBl2 (coexpressing both CD19-CAR-FRBl2 and iCaspase9), or control vector. […] After overnight incubation with drugs, SEAP activity was determined. […] This dose-dependent decrease required the presence of both the FRB-tagged CAR and the FKBP-tagged Caspase-9. […] Moreover, on- or off-target-mediated CAR clustering should increase the sensitivity of killing primarily at the site of scFv engagement.

[4] = test system: 293 cells; assay: SEAP assay: iMC.FRBL / iMC.FRBL2 plus Caspase-9; type: cell-based, human; conditions: Caspase-9 with iMC.FRBL or iMC.FRBL2 and anti-HER2 CAR
Protocol: HEK-293 cells were transfected with 1 μg of SRα-SEAP constitutive reporter plasmid along with either negative (Neg) control, eGFP (pBP0047), CaspaCIDe (iC9/pBP0044) alone, or CaspaCIDe along with iMC.FRBL (pBP0655)+anti-HER2.CAR.Fpk2 (pBP0488) or iMC.FRBL2 (pBP0498)+anti-HER2.CAR.Fpk2. Cells were then plated with half-log dilutions of rimiducid or rapamycin and assayed for SEAP as previously described. Diminution of SEAP activity correlates with cell elimination. Schematic represents one possible rapamycin-mediated complex of signaling domains, which lead to Caspase-9 clustering and apoptosis.
To determine if multimers of FRB would still act as a recruitment scaffold to enable rapalog-mediated Caspase-9 dimerization when attached to another signaling domain, 1 or 2 FRBL domains were fused to the potent chimeric stimulatory molecule, MyD88/CD40, to derive iMC.FRBL (pBP0655) and iMC.FRBL2 (pBP0498), respectively (FIG. 9B). As an initial test, 293 cells were transiently transfected with reporter plasmid SRα-SEAP, Caspase-9, a 1st generation anti-HER2 CAR (pBP0488) and (pBP0655 or pBP0498) (FIG. 15). Control transfections contained Caspase-9 (pBP0044) alone or eGFP expression vector (pBP0047). […] Thus, heterodimerizer-mediated activation of Caspase-9 is possible in cells containing multimers of FRBL fused to distinct proteins, such as MyD88/CD40.

[5] = test system: 293 cells; assay: SEAP assay: iMC (tandem FKBP) plus FRBL2-Caspase-9; type: cell-based, human; conditions: tandem FKBPs (iMC) present
Protocol: FIGS. 16A and 16B are line graphs showing that tandem FKBP scaffold mediates FRBL2. Caspase activation in the presence of rapalogs. FIG. 16A. HEK-293 cells were transfected with 1 μg each of SRα-SEAP reporter plasmid, Δmyr.iMC.2A-anti-CD19.CAR.CD3 (pBP0608), and FRBL2. Caspase-9 (pBP0467). […] After ON incubation, cell supernatants were assayed for SEAP activity, as previously described. FIG. 16B. Similar to the experiment described in (FIG. 16A), except that cells were transfected with a membrane-localized (myristoylated) iMC.2A-CD19.CAR.CD3ζ (pBP0609), instead of non-myristoylated Amyr.iMC.2A-CD19.CAR.CD3ζ (pBP0608).
In a second test for rapalog-mediated scaffold-based activation of Caspase-9, 293 cells were transiently transfected with SRα-SEAP reporter plasmid, plus myristoylated or non-myristoylated inducible iMC co-expressed with 1st generation anti-CD19 CAR, plus FRBL2-fused Caspase-9 (plasmid pBP0467) (FIG. 16). […] Thus, rapamcyin and analogs can activate Caspase-9 via a molecular scaffold comprised of FRB or FKBP12 domains.

CC[C@H](C(=O)N1CCCC[C@H]1C(=O)O[C@H](CCc1ccc(OC)c(OC)c1)c1cccc(OCC(=O)NCCNC(=O)COc2cccc([C@@H](CCc3ccc(OC)c(OC)c3)OC(=O)[C@@H]3CCCCN3C(=O)[C@@H](CC)c3cc(OC)c(OC)c(OC)c3)c2)c1)c1cc(OC)c(OC)c(OC)c1 (relative stereo) [AP1903, 2-Piperidinecarboxylic acid, 1-[(2S)-1-oxo-2-(3,4,5-trimethoxyphenyl)butyl]-, 1,2-ethanedilbis[imino(2-oxo-2,1-ethanediyl)oxy-3,1-phenyleneR1R)-3-(3,4-dimethoxyphenyl)propylidene]] ester, [2S-[1(R*),2R*[S*[S*[1(R*),2R*]]]]]-(9CI)]
further reduction of CD3+ΔCD19+ cells [1]: further log reduction
cell death (loss of SeAP reporter) ([2]; FKBPv12-Caspase-9 with control vector or FRB without caspase fusion): effectively permitted homodimerization and induction of Caspase-9
cell death (loss of SeAP reporter) ([2]; FRBL-Caspase9 plus FKBPv12-Caspase9): dose-dependent homodimerization of only FKBP12-Caspase9, leading to dimerization and activation of apoptosis
SEAP activity, of normal levels [3]: about 20%
SEAP reduction / cell killing [4]: killed by Caspase-9 homodimerization
activation of FRBL2-Caspase-9 [5]: not activated
